For the test, the target named is Replicase polyprotein 1ab (Severe acute respiratory syndrome coronavirus 2) (UniProt P0DTD1).
The mark [1] stands for this setting: Concentration 50.0 uM, Number of replicates 2.0, Standard deviation 1.985 %.

Description: Functional biochemical assay to identify treatments for viral infectious disease that targets SARS-COV-2 nsp3 macrodomain, whereby the mechanism of action displaces an ADP-Ribose modified peptide from the binding site. Utilizing a time-resolved fluorescence method to measure binding by reading the emitted fluorescence intensity in two wavelengths.

Consider `C[C@@H](NC(=O)c1cnn2ccc(C3CCN(C(=O)c4ccccc4)CC3)cc12)c1cc[nH]n1`, for which the inhibition (Concentration 49.75 uM, Number of replicates 2.0, Standard deviation 1.723 %) was -4.99% and the inhibition (Concentration 99.5 uM, Number of replicates 2.0, Standard deviation 0.833 %) was -2.77%.

In the case of `O=C(Cc1ccns1)Nc1ncnc2[nH]cnc12`, the inhibition (Concentration 49.75 uM, Number of replicates 2.0, Standard deviation 7.374 %) is -9.5% and the inhibition (Concentration 99.5 uM, Number of replicates 2.0, Standard deviation 4.303 %) is -3.24%.

Regarding `c1nc(NCc2cnc3sccn23)c2[nH]cnc2n1`, the inhibition (Concentration 50.0 uM, Number of replicates 2.0, Standard deviation 7.011 %) is -4.78% and the inhibition (Concentration 100.0 uM, Number of replicates 2.0, Standard deviation 4.457 %) was 5.65%.

As for `CC(C)[C@H]1CN(c2ncnc3[nH]ccc23)[C@H]1C(C)C`, the inhibition was 0.348% (Concentration 49.75 uM, Number of replicates 2.0, Standard deviation 1.709 %) and -2.2% (Concentration 99.5 uM, Number of replicates 2.0, Standard deviation 1.351 %).

Consider `COCc1cc(CNc2nc3[nH]cnc3c(=O)[nH]2)on1`, for which the inhibition (Concentration 50.0 uM, Number of replicates 2.0, Standard deviation 1.926 %) turned out to be 2.98%.

Take `NCC(F)(F)CNC(=O)c1ccc(NC(=O)Nc2ccccc2)cc1`: the inhibition by setting is: (Concentration 49.75 uM, Number of replicates 2.0, Standard deviation 4.8 %) -0.965%; (Concentration 99.5 uM, Number of replicates 2.0, Standard deviation 1.089 %) -1.17%.

`O=C(c1cnc[nH]1)N1CCC(c2ccn3ncc(C(=O)N4CCCCC4)c3c2)CC1`: the inhibition (Concentration 49.75 uM, Number of replicates 2.0, Standard deviation 1.741 %) stood at 20.3% and the inhibition (Concentration 99.5 uM, Number of replicates 2.0, Standard deviation 2.598 %) turned out to be 35.3%.

Turning to `Cc1cccc([C@@H]2CCCN2c2ncnc3[nH]ccc23)n1`, the inhibition (Concentration 50.0 uM, Number of replicates 2.0, Standard deviation 4.141 %) was 0.182%.

`Cc1[nH]c2ncnc(NCc3ccco3)c2c1C`: the inhibition was 17% (Concentration 50.0 uM, Number of replicates 2.0, Standard deviation 0.505 %) and 37.5% (Concentration 100.0 uM, Number of replicates 2.0, Standard deviation 0.323 %).

On to `FC(F)(F)c1ccccc1[C@@H]1CN(c2ncnc3[nH]ccc23)CCO1`, for which the inhibition (Concentration 50.0 uM, Number of replicates 2.0, Standard deviation 3.904 %) was -5.31%.

Regarding `CCc1nc(CN(C)c2nc(C)nc3[nH]ccc23)cs1`, the inhibition (Concentration 50.0 uM, Number of replicates 2.0, Standard deviation 3.767 %) is -6.13%.

With `O=C(NCc1cc2n(n1)CCCC2)c1cc2cncnc2[nH]1`, the inhibition (Concentration 50.0 uM, Number of replicates 4.0, Standard deviation 10.451 %) stood at 4.17%.

As for `c1ccc(-c2n[nH]cc2CNc2cnc3[nH]ncc3c2)cc1`, the inhibition (Concentration 50.0 uM, Number of replicates 2.0, Standard deviation 1.159 %) is -2.04%.

`CN(c1ncnc2[nH]ncc12)[C@@H](CCO)c1ccccc1`: the inhibition was 8.86% (Concentration 49.75 uM, Number of replicates 2.0, Standard deviation 10.225 %) and 5.14% (Concentration 99.5 uM, Number of replicates 2.0, Standard deviation 3.705 %).

Turning to `Cn1c(C(=O)NCCNC(=O)c2ccco2)cc2c(=O)n3ccccc3nc21`, the inhibition (Concentration 50.0 uM, Number of replicates 2.0, Standard deviation 1.378 %) is -4.47%.

Take `O=C(c1cn2ncccc2n1)N1CCC(c2ccn3ncc(C(=O)N4CCCCC4)c3c2)CC1`: the inhibition was determined as 30.7% (Concentration 49.75 uM, Number of replicates 2.0, Standard deviation 0.525 %) and 53.8% (Concentration 99.5 uM, Number of replicates 2.0, Standard deviation 6.296 %).

Take `O=C(O)[C@H]1CCCCCN1C(=O)c1ncnc2[nH]ccc12`: the inhibition (Concentration 50.0 uM, Number of replicates 2.0, Standard deviation 6.117 %) stood at 11.8%.

On to `O=C(CCN(Cc1cccc(Cl)c1)C(=O)c1ccc(F)cn1)N1CCNCC1`, for which the inhibition is, setting by setting: (Concentration 49.75 uM, Number of replicates 2.0, Standard deviation 0.987 %) 6.76%; (Concentration 99.5 uM, Number of replicates 2.0, Standard deviation 1.391 %) 6.74%.

Turning to `Cc1nc(NC(=O)c2ccnn2C(C)C)c2cc[nH]c2n1`, the inhibition is, setting by setting: (Concentration 50.0 uM, Number of replicates 2.0, Standard deviation 4.637 %) -2.64%; (Concentration 100.0 uM, Number of replicates 2.0, Standard deviation 4.768 %) -4.35%.

In the case of `O=C(c1nc(=O)[nH][nH]1)N1CCC(c2ccn3ncc(C(=O)N4CCCCC4)c3c2)CC1`, the inhibition runs as follows: (Concentration 49.75 uM, Number of replicates 2.0, Standard deviation 0.837 %) 23.4%; (Concentration 99.5 uM, Number of replicates 2.0, Standard deviation 3.14 %) 34.6%.

For `O=C(N[C@H](Cn1cnc2cc(F)c(F)cc21)C(=O)O)c1ncnc2[nH]ccc12`, the inhibition (Concentration 49.75 uM, Number of replicates 2.0, Standard deviation 5.178 %) was -2.04% and the inhibition (Concentration 99.5 uM, Number of replicates 2.0, Standard deviation 0.435 %) came to 8.39%.

On to `CN1CCOc2cccc(NC(=O)Nc3cnc4[nH]ncc4c3)c21`, for which the inhibition under setting [1] is -6.54%.

As for `Clc1cnc(OCCNc2ncnc3[nH]ccc23)c(Cl)c1`, the inhibition (Concentration 50.0 uM, Number of replicates 2.0, Standard deviation 2.048 %) was -4.3% and the inhibition (Concentration 100.0 uM, Number of replicates 2.0, Standard deviation 3.465 %) is -7.69%.

In the case of `O=C(NC1CCC(F)(F)CC1)c1ncnc2[nH]ccc12`, the inhibition was -3.47% (Concentration 49.75 uM, Number of replicates 2.0, Standard deviation 1.299 %) and -5.78% (Concentration 99.5 uM, Number of replicates 2.0, Standard deviation 1.382 %).

As for `Cc1c[nH]nc1C(=O)N1CCC(c2ccn3ncc(C(=O)N4CCCCC4)c3c2)CC1`, the inhibition stood at 8.47% (Concentration 49.75 uM, Number of replicates 2.0, Standard deviation 6.018 %) and 27.4% (Concentration 99.5 uM, Number of replicates 2.0, Standard deviation 4.753 %).

As for `CC(C)(C[C@@H]1CCCN(c2ncnc3[nH]ccc23)C1)C(N)=O`, where the note is “Concentration 50.0 uM, Number of replicates 2.0, Standard deviation 4.235 %”, the inhibition was -1.59%.

As for `Cc1ccc2ccccc2c1-c1ncnc2[nH]ccc12`, the inhibition runs as follows: (Concentration 49.75 uM, Number of replicates 2.0, Standard deviation 3.409 %) -5.32%; (Concentration 99.5 uM, Number of replicates 2.0, Standard deviation 3.055 %) -9.1%.

With `Cn1nc(NCc2cc3c(=O)[nH]ccc3o2)c2nccnc21`, the inhibition under setting [1] was -1.01%.

For the compound `O=C(Nc1cnc2[nH]ncc2c1)c1ccccc1CN1CCOCC1`, the inhibition (Concentration 50.0 uM, Number of replicates 2.0, Standard deviation 2.919 %) was -3.24%.

Take `O=C(Cn1c(=O)[nH]c2ccccc21)Nc1cnc2[nH]ncc2c1`: the inhibition (Concentration 50.0 uM, Number of replicates 2.0, Standard deviation 2.142 %) worked out at 1.78%.

With `O=C(Nc1cnc2[nH]ncc2c1)c1ccncc1Cl`, the inhibition is -2.75% (Concentration 50.0 uM, Number of replicates 2.0, Standard deviation 1.31 %); -0.272% (Concentration 50.0 uM, Number of replicates 2.0, Standard deviation 1.931 %); 2.96% (Concentration 100.0 uM, Number of replicates 2.0, Standard deviation 1.828 %).

Consider `O=C(Nc1cnc2[nH]ncc2c1)c1cccc(-c2noc(C(F)(F)F)n2)c1`, for which the inhibition (Concentration 50.0 uM, Number of replicates 2.0, Standard deviation 7.077 %) was -0.675% and the inhibition (Concentration 100.0 uM, Number of replicates 2.0, Standard deviation 3.401 %) was -1.62%.

As for `c1ccc([C@@H](CNc2ncnc3n[nH]cc23)N2CCOCC2)cc1`, the inhibition (Concentration 50.0 uM, Number of replicates 2.0, Standard deviation 1.427 %) is -0.781%.

Consider `C=CCn1c(Sc2ncnc3[nH]ccc23)nc2sccc2c1=O`, for which, where the note is “Concentration 50.0 uM, Number of replicates 2.0, Standard deviation 0.219 %”, the inhibition came out at 6.3%.

Consider `O=C1C[C@@]2(CCCN(c3ncnc4[nH]ccc34)C2)CN1`, for which, where the note is “Concentration 50.0 uM, Number of replicates 2.0, Standard deviation 0.483 %”, the inhibition was -2.45%.

For the compound `c1ccc2sc(CNc3ncnc4[nH]ccc34)nc2c1`, the inhibition (Concentration 50.0 uM, Number of replicates 2.0, Standard deviation 5.906 %) is -0.671%.

For `O=S(=O)(Nc1ncccn1)c1ccc2oc3ccccc3c2c1`, the inhibition (Concentration 50.0 uM, Number of replicates 2.0, Standard deviation 5.51 %) is -3%.

With `C[C@@H](CO)Nc1ncnc2[nH]c(C(=O)OC(C)(C)C)cc12`, the inhibition (Concentration 50.0 uM, Number of replicates 2.0, Standard deviation 12.843 %) worked out at 10.7%.

For `O=C(Nc1cnc2[nH]ncc2c1)C1(c2ccccc2)CC1`, the inhibition (Concentration 50.0 uM, Number of replicates 2.0, Standard deviation 8.824 %) was found to be 3.21%.

On to `CN(Cc1nccn1Cc1ccccc1)c1ncnc2[nH]ccc12`, for which the inhibition (Concentration 50.0 uM, Number of replicates 2.0, Standard deviation 2.394 %) was -7.22% and the inhibition (Concentration 100.0 uM, Number of replicates 2.0, Standard deviation 1.584 %) is -8.82%.

With `Cc1c(-c2cnc3nc[nH]c(=O)c3c2)ccc2[nH]ncc12`, the inhibition is, setting by setting: (Concentration 49.75 uM, Number of replicates 2.0, Standard deviation 0.542 %) -3.12%; (Concentration 99.5 uM, Number of replicates 2.0, Standard deviation 2.71 %) -4.36%.

As for `CC(C)[C@@H](Nc1ncnc2[nH]ccc12)C(N)=O`, the inhibition is 64.4% (Concentration 49.75 uM, Number of replicates 2.0, Standard deviation 3.584 %) and 77.7% (Concentration 99.5 uM, Number of replicates 2.0, Standard deviation 5.819 %).

For the compound `O=C(Nc1cnc2[nH]ncc2c1)c1ccc(Oc2cccc(Br)c2)nc1`, the inhibition (Concentration 50.0 uM, Number of replicates 2.0, Standard deviation 1.64 %) is -0.183%.

As for `C[C@@H](Nc1ncnc2[nH]ccc12)c1cnn(CC2CCC2)c1`, the inhibition (Concentration 49.75 uM, Number of replicates 2.0, Standard deviation 1.153 %) is -0.451% and the inhibition (Concentration 99.5 uM, Number of replicates 2.0, Standard deviation 1.366 %) was 4.9%.

Take `c1cc(-c2nnc(Sc3ncnc4[nH]ccc34)[nH]2)ccn1`: the inhibition runs as follows: (Concentration 50.0 uM, Number of replicates 2.0, Standard deviation 4.573 %) 10.7%; (Concentration 50.0 uM, Number of replicates 2.0, Standard deviation 8.715 %) 5.47%; (Concentration 100.0 uM, Number of replicates 2.0, Standard deviation 31.914 %) 3.32%.

`c1ccc2sc([C@@H]3CCCN(c4ncnc5[nH]ccc45)C3)nc2c1`: for the setting “Concentration 50.0 uM, Number of replicates 2.0, Standard deviation 1.364 %”, the inhibition is -0.779%.

Take `O=C(NCc1ncccn1)c1cnn2ccc(C3CCN(C(=O)c4ccccc4)CC3)cc12`: the inhibition was -0.074% (Concentration 49.75 uM, Number of replicates 2.0, Standard deviation 2.653 %) and -6.66% (Concentration 99.5 uM, Number of replicates 2.0, Standard deviation 0.514 %).

A word on the inhibition: it is the relative decrease from the control value, in per cent.

The record behind these values is ChEMBL document CHEMBL5442379, “ASAP - SARS-CoV-2 nsp3 macrodomain single point” (2024).
